Experimental data reported in patent publication US20250122147A1, “ARYL CYCLOHEXANEDIONE DERIVATIVE OR SALT THEREOF, PEST CONTROL AGENT CONTAINING SAME, AND METHOD FOR USE THEREOF” (ADEKA Corporation, priority 2021, published 2025).

System: Plutella xylostella
Assay: Insecticidal test against Plutella xylostella
Details: 500 ppm drug solution; Chinese cabbage seedlings with eggs immersed about 30 sec; six days after immersion; 25° C.
From the text: Six days after the immersion in the drug solution, the number of surviving insects was examined. […] In triplicate using 10 per plot.

SMILES	corrected mortality, rating of assessment
NC(=O)c1ccc(C2CC(=O)C(C(=O)Nc3ccc(F)cc3)=C(O)C2)cc1 (stereo not drawn) [1-62]	D or higher
O=C1CC(c2ccc(C(F)(F)F)nc2)CC(O)=C1C(=O)Nc1ccc(C(F)(F)F)cc1 (stereo not drawn) [1-69]	D or higher
O=C1CC(c2cc(C(F)(F)F)cc(C(F)(F)F)c2)CC(O)=C1C(=O)Nc1ccc(F)cc1 (stereo not drawn) [1-2]	D or higher
O=C1CC(c2ccc(C(F)(F)F)cc2)CC(O)=C1C(=O)Nc1ccc([S+]([O-])C(F)(F)F)cc1 (stereo not drawn) [1-52]	D or higher
CC1(c2ccc(C(F)(F)F)cc2)CC(=O)C(C(=S)Nc2ccc(F)cc2)=C(O)C1 (stereo not drawn) [1-140]	D or higher
CSc1ccc(NC(=O)C2=C(O)CC(c3ccc(C(F)(F)F)cc3)CC2=O)cc1 (stereo not drawn) [1-49]	D or higher
O=C1CC(c2ccc(Cl)s2)CC(O)=C1C(=O)Nc1ccc(F)cc1 (stereo not drawn) [1-145]	D or higher
O=C1CC(c2ccc(C(F)(F)F)cc2)CC(O)=C1C(=O)Nc1cccc(Cl)c1 (stereo not drawn) [1-21]	D or higher
CSc1ccc(C2CC(=O)C(C(=O)Nc3ccc(F)cc3)=C(O)C2)cc1 (stereo not drawn) [1-208]	D or higher
O=C1CC(c2cnco2)CC(O)=C1C(=O)Nc1ccc(F)cc1 (stereo not drawn) [1-223]	D or higher
N#Cc1ccc(NC(=O)C2=C(O)CC(c3ccc(C(F)(F)F)cc3)CC2=O)cc1 (stereo not drawn) [1-7]	D or higher
O=C1CC(c2ccc([S+]([O-])C(F)(F)F)cc2)CC(O)=C1C(=O)Nc1ccc(F)cc1 (stereo not drawn) [1-211]	D or higher
O=C1CC(c2ccc(SC(F)(F)F)cc2)CC(O)=C1C(=O)Nc1ccc(Cl)cc1 (stereo not drawn) [1-235]	D or higher
Cc1cc(Cl)ccc1NC(=O)C1=C(O)CC(c2ccc(C(F)(F)F)cc2)CC1=O (stereo not drawn) [1-16]	D or higher
O=C1CC(c2ccc(C(F)(F)F)cc2)CC(O)=C1C(=O)NCc1ccccc1 (stereo not drawn) [1-12]	D or higher
O=C1CC(c2ccc(C(F)(F)F)cc2)CC(O)=C1C(=O)Nc1ccnc(F)c1 (stereo not drawn) [1-147]	D or higher
O=C1CC(c2ccc(C(F)(F)F)nc2)CC(O)=C1C(=O)Nc1ccnc(F)c1 (stereo not drawn) [1-151]	D or higher
O=C1CC(c2ccc(C(F)(F)F)c(Cl)c2)CC(O)=C1C(=S)Nc1ccc(C(F)(F)F)cc1 (stereo not drawn) [1-77]	D or higher
Cc1ccc(C2CC(=O)C(C(=O)Nc3ccc(F)cn3)=C(O)C2)cc1 (stereo not drawn) [1-148]	D or higher
O=C1CC(c2ccc(C(F)(F)F)cc2)CC(O)=C1C(=O)Nc1cccs1 (stereo not drawn) [1-40]	D or higher
O=C1CC(c2cccs2)CC(O)=C1C(=O)Nc1cccs1 (stereo not drawn) [1-75]	D or higher
O=C1CC(c2ccc(C(F)(F)F)cc2)CC(O)=C1C(=O)Nc1ccc(F)cc1 (stereo not drawn) [1-6]	D or higher
O=C1CC(c2ccc(C(F)(F)F)cc2)CC(O)=C1C(=O)Nc1c(F)cccc1F (stereo not drawn) [1-18]	D or higher
CSc1ccc(C2CC(=O)C(C(=O)Nc3ccc(Cl)cc3)=C(O)C2)cc1 (stereo not drawn) [1-234]	D or higher
Cc1ccccc1C1CC(=O)C(C(=O)Nc2ccc(F)cc2)=C(O)C1 (stereo not drawn) [1-1]	D or higher
Cc1ccc(C2CC(=O)C(C(=O)Nc3ccc(F)cc3)=C(O)C2)s1 (stereo not drawn) [1-76]	D or higher
O=C1CC(c2ccc(C(F)(F)F)nc2)CC(O)=C1C(=S)Nc1ccc(F)cn1 (stereo not drawn) [1-231]	D or higher
